From paper PMC8550792, “Evolution of kinase polypharmacology across HSP90 drug discovery” (Cell Chemical Biology, 2021)

Experiments:
Experiment in all cases: biochemical
Assay type in all cases: biochemical
382 unique human kinases [1] = target: T1, 382 unique human kinases (Homo sapiens, UniProt Q02779); conditions: kinase MLK2/MAP3K10, compound 10 uM; for remaining activity at 10 µM: read-out: % Enzyme Activity (relative to DMSO controls)
T1 construct: purchased Reaction Biology (HotSpot contract assay)

382 unique human kinases [2] = target: T2, 382 unique human kinases (Homo sapiens, UniProt P22607, K650M); conditions: FGFR3 (K650M), 10 uM; for remaining activity at 10 µM: read-out: % Enzyme Activity (relative to DMSO controls)
T2 construct: purchased Reaction Biology (HotSpot contract assay)

382 unique human kinases [3] = target: T3, 382 unique human kinases (Homo sapiens, UniProt P45984); conditions: kinase JNK2, compound 10 uM; for remaining activity at 10 µM: read-out: % Enzyme Activity (relative to DMSO controls)
T3 construct: purchased Reaction Biology (HotSpot contract assay)

382 unique human kinases [4] = target: T4, 382 unique human kinases (Homo sapiens, UniProt Q02750); conditions: kinase MEK1, compound 10 uM; for remaining activity at 10 µM: read-out: % Enzyme Activity (relative to DMSO controls)
T4 construct: purchased Reaction Biology (HotSpot contract assay)

382 unique human kinases [5] = target: T5, 382 unique human kinases (Homo sapiens, UniProt O15111); conditions: IKKa/CHUK, 10 uM; for remaining activity at 10 µM: read-out: % Enzyme Activity (relative to DMSO controls)
T5 construct: purchased Reaction Biology (HotSpot contract assay)
T5 sequence (O15111 1-745): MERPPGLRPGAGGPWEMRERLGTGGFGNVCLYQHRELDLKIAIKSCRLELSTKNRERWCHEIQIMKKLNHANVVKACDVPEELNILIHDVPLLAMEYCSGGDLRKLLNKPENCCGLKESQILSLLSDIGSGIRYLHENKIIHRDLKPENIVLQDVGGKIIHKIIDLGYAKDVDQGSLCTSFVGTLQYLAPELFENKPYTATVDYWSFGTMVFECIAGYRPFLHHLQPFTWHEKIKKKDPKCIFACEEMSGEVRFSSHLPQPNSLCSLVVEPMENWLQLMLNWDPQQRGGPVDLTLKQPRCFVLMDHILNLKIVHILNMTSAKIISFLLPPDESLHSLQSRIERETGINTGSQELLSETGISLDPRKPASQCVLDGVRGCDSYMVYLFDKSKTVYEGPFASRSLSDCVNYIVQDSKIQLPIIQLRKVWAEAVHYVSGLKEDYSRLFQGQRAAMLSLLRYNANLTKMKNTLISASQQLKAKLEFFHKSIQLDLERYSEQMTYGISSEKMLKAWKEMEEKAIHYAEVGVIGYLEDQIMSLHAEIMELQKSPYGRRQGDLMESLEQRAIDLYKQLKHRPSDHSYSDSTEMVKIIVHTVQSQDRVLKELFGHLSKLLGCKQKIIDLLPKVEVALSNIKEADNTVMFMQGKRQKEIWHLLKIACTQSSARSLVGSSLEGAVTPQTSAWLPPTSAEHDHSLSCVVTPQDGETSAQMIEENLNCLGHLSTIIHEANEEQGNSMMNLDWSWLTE

382 unique human kinases [6] = target: T6, 382 unique human kinases (Homo sapiens, UniProt P00519, Y253H); conditions: ABL1 (Y253H), [ATP] 10 µM, compound 10 uM; for remaining activity at 10 µM: read-out: % Enzyme Activity (relative to DMSO controls)
T6 construct: purchased Reaction Biology (HotSpot contract assay)

382 unique human kinases [7] = target: T7, 382 unique human kinases (Homo sapiens, UniProt P35916); conditions: FLT4/VEGFR3, [ATP] 5 µM, compound 10 uM; for remaining activity at 10 µM: read-out: % Enzyme Activity (relative to DMSO controls)
T7 construct: purchased Reaction Biology (HotSpot contract assay)

382 unique human kinases [8] = target: T8, 382 unique human kinases (Homo sapiens, UniProt Q8IVT5); conditions: KSR1, 10 uM; for remaining activity at 10 µM: read-out: % Enzyme Activity (relative to DMSO controls)
T8 construct: purchased Reaction Biology (HotSpot contract assay)
T8 sequence (Q8IVT5 1-923): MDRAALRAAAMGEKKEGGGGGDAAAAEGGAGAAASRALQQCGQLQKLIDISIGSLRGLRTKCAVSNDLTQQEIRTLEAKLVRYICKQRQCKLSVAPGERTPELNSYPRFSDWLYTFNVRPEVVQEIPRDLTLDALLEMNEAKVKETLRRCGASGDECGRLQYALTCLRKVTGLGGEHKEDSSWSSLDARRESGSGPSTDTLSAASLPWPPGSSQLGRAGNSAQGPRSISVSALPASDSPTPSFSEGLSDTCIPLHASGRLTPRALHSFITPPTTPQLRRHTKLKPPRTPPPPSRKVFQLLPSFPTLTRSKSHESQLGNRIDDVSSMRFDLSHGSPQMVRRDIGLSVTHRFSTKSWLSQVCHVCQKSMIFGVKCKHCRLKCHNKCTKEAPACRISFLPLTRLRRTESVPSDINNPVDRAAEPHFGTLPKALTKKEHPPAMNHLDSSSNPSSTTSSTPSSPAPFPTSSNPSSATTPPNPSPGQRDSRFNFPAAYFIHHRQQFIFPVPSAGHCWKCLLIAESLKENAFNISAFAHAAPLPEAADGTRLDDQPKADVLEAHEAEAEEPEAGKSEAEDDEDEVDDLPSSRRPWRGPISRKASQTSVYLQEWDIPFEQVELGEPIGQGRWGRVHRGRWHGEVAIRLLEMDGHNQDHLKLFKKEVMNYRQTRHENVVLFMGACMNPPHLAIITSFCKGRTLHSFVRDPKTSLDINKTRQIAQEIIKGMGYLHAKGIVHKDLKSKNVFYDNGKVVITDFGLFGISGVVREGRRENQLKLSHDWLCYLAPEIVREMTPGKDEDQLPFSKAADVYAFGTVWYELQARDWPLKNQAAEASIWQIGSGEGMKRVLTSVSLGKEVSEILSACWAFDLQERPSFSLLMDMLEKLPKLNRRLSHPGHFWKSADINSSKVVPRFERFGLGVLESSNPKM

382 unique human kinases [9] = target: T9, 382 unique human kinases (Homo sapiens, UniProt P54756); conditions: EPHA5, [ATP] 30 µM, compound 10 uM; for remaining activity at 10 µM: read-out: % Enzyme Activity (relative to DMSO controls)
T9 construct: purchased Reaction Biology (HotSpot contract assay)

382 unique human kinases [10] = target: T10, 382 unique human kinases (Homo sapiens, UniProt Q9UQB9); conditions: Aurora C, 10 uM; for remaining activity at 10 µM: read-out: % Enzyme Activity (relative to DMSO controls)
T10 construct: purchased Reaction Biology (HotSpot contract assay)
T10 sequence (Q9UQB9 1-309): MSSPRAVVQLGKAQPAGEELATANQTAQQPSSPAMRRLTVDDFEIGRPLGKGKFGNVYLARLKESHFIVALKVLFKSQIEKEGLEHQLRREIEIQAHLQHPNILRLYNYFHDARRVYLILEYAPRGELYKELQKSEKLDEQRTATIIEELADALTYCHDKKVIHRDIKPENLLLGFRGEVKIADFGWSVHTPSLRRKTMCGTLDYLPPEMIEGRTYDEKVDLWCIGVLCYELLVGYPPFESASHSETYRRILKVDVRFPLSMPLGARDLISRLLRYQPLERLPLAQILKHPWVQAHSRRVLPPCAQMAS

382 unique human kinases [11] = target: T11, 382 unique human kinases (Homo sapiens, UniProt P00519, H396P); conditions: ABL1 (H396P), [ATP] 15 µM, compound 10 uM; for remaining activity at 10 µM: read-out: % Enzyme Activity (relative to DMSO controls)
T11 construct: purchased Reaction Biology (HotSpot contract assay)

T4 sequence (Q02750 whole entry): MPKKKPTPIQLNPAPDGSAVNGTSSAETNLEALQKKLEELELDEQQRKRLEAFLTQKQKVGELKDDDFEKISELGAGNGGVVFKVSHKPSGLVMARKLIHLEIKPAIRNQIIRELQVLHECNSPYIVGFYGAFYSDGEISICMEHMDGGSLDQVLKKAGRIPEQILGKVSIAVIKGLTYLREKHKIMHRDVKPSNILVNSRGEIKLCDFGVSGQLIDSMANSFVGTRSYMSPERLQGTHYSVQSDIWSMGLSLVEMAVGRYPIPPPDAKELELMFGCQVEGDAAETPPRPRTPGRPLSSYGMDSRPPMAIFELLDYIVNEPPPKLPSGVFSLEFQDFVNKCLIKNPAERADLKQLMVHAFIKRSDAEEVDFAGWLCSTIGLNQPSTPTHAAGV
T2 sequence (P22607 23-806 K650M): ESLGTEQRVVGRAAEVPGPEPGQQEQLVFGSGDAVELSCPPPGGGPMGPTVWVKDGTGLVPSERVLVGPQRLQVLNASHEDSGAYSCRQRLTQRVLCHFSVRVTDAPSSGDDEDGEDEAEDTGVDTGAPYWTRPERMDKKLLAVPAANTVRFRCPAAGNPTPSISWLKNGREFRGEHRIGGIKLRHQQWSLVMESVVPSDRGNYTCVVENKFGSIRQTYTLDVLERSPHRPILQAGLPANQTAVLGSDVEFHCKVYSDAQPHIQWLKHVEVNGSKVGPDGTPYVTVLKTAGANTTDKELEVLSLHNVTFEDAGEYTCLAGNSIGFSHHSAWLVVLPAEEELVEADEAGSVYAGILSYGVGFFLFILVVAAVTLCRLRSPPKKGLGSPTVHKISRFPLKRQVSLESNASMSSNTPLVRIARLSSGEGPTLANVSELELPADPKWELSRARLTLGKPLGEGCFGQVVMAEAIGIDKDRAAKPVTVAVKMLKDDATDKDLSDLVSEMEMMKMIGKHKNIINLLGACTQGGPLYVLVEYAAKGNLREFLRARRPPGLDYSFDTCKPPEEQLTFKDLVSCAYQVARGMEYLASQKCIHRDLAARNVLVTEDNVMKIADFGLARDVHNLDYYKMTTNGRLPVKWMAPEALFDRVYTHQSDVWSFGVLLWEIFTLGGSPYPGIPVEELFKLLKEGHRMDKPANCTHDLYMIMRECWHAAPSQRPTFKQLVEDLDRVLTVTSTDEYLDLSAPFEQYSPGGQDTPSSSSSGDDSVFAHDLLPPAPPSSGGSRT
T9 sequence (P54756 25-1037): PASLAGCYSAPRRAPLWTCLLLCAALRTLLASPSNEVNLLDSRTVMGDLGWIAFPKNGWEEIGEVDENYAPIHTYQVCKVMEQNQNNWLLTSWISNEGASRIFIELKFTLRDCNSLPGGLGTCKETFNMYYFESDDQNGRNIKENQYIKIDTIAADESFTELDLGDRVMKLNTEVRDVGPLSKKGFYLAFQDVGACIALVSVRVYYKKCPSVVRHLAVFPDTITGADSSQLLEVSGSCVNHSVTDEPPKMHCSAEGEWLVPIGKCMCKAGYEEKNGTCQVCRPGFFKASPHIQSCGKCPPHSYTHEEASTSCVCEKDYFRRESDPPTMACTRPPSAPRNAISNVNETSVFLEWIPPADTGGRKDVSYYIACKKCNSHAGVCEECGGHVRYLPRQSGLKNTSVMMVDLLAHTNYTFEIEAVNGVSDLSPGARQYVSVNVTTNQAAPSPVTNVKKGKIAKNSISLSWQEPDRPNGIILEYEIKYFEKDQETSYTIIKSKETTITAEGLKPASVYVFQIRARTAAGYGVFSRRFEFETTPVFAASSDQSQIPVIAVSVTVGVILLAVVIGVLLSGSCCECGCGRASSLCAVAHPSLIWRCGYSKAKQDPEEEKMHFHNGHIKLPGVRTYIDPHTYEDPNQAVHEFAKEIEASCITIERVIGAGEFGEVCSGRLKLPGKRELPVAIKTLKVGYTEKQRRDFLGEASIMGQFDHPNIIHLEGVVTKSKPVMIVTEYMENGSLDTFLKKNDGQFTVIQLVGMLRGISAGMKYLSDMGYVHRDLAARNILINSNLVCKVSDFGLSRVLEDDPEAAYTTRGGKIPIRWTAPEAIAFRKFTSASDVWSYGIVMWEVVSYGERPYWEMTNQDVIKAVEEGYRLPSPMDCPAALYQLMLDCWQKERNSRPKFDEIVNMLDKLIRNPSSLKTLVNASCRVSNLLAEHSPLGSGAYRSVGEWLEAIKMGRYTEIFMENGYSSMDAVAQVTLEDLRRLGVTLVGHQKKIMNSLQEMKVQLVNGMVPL
T1 sequence (Q02779 whole entry): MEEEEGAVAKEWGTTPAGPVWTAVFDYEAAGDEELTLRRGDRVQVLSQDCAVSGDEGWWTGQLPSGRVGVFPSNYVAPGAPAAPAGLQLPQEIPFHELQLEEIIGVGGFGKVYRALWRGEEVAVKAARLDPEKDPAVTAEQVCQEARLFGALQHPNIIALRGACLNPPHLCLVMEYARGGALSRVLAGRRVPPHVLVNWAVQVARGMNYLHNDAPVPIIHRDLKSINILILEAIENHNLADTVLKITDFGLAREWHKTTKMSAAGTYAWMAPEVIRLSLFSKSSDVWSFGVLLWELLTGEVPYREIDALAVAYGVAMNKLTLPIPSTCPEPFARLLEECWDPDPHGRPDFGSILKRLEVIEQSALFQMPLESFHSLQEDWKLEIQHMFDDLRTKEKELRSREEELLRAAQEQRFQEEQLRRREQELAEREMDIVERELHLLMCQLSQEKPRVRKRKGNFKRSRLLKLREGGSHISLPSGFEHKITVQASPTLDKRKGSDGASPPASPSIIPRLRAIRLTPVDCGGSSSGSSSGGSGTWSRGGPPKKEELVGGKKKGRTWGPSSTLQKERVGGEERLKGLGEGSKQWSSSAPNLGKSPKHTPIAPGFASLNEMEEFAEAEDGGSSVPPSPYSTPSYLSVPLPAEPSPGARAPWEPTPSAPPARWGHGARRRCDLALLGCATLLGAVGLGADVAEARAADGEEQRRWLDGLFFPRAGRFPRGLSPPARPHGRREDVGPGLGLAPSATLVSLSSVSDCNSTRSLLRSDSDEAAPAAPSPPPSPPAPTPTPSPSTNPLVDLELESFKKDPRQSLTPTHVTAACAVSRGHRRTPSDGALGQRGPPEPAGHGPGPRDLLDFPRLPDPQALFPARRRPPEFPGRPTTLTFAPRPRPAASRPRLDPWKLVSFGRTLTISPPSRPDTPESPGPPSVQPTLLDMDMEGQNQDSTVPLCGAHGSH
T3 sequence (P45984 whole entry): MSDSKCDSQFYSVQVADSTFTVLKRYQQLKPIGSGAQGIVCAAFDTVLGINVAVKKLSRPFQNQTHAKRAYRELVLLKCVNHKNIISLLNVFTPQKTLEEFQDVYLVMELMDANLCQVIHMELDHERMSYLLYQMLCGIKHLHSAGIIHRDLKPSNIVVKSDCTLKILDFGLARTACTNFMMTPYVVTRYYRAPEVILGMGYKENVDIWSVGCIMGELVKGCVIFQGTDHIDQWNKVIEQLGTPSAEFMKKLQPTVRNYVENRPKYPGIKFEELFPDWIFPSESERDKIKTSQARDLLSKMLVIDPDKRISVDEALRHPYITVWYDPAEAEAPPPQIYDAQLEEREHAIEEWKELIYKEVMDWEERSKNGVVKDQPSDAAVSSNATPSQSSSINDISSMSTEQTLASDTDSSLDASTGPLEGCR
T7 sequence (P35916 25-1363): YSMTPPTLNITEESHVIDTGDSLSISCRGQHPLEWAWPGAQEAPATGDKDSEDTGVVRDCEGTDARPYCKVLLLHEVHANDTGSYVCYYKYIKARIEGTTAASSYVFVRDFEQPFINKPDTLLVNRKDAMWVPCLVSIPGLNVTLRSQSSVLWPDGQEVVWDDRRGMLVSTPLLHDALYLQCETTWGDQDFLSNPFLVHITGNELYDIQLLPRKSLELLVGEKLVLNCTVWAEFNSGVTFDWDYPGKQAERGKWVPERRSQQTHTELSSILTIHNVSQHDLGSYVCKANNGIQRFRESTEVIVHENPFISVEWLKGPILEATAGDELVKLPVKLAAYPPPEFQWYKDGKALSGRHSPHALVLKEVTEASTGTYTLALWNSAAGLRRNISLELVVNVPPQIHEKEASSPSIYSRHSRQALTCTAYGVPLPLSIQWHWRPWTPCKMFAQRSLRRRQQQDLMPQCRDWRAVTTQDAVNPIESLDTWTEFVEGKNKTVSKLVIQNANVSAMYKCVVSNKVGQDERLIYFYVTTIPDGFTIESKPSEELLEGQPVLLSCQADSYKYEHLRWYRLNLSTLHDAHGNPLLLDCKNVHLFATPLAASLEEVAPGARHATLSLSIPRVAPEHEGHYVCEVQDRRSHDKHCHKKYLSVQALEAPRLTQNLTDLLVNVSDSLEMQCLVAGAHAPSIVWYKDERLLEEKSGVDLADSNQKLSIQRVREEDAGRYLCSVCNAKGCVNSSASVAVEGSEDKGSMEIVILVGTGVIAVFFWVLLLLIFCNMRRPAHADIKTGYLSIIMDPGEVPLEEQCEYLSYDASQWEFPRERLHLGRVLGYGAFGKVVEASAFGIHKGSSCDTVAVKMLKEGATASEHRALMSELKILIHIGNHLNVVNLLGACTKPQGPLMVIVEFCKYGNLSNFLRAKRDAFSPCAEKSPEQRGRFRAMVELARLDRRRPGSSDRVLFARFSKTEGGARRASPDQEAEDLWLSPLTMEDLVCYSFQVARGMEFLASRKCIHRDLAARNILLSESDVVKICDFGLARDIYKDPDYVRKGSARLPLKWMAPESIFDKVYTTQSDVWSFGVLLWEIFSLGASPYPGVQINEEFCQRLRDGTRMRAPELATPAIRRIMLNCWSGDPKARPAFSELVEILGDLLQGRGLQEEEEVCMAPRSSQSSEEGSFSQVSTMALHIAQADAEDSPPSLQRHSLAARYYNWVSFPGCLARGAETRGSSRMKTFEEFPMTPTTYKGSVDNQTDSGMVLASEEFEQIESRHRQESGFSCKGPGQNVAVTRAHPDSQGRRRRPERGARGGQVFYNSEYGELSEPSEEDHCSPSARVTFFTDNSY

CC(C)c1cc(-c2n[nH]c(=O)n2-c2ccc3c(ccn3C)c2)c(O)cc1O [Ganetespib (STA9090)]
remaining activity at 10 µM (382 unique human kinases [1]): 98.6% | remaining activity at 10 µM (382 unique human kinases [2]): 86.5% | remaining activity at 10 µM (382 unique human kinases [3]): 90% | remaining activity at 10 µM (382 unique human kinases [4]): 90.3%

CC(C)c1cc(-c2n[nH]c(=O)n2-c2ccc3c(ccn3C)c2)c(O)cc1O [Ganetespib]
remaining activity at 10 µM (382 unique human kinases [5]): 103% | remaining activity at 10 µM (382 unique human kinases [6]): 9.65% | remaining activity at 10 µM (382 unique human kinases [7]): 47.4% | remaining activity at 10 µM (382 unique human kinases [8]): 99.8% | remaining activity at 10 µM (382 unique human kinases [9]): 55.6% | remaining activity at 10 µM (382 unique human kinases [10]): 92.9% | remaining activity at 10 µM (382 unique human kinases [11]): 2.43%

CCNC(=O)c1noc(-c2cc(C(C)C)c(O)cc2O)c1-c1ccc(CN2CCOCC2)cc1 [Luminespib (AUY-922)]
% Enzyme Activity (relative to DMSO controls) (382 unique human kinases [1]): 89.74% | remaining activity at 10 µM (382 unique human kinases [1]): 91.1% | % Enzyme Activity (relative to DMSO controls) (382 unique human kinases [2]): 70.76% | remaining activity at 10 µM (382 unique human kinases [2]): 78.7% | % Enzyme Activity (relative to DMSO controls) (382 unique human kinases [3]): 99.14% | remaining activity at 10 µM (382 unique human kinases [3]): 99.7% | % Enzyme Activity (relative to DMSO controls) (382 unique human kinases [4]): 95.75% | remaining activity at 10 µM (382 unique human kinases [4]): 95.8%

CCNC(=O)c1noc(-c2cc(C(C)C)c(O)cc2O)c1-c1ccc(CN2CCOCC2)cc1 [Luminespib]
% Enzyme Activity (relative to DMSO controls) (382 unique human kinases [5]): 93.54% | remaining activity at 10 µM (382 unique human kinases [5]): 94.7% | % Enzyme Activity (relative to DMSO controls) (382 unique human kinases [6]): 6.34% | remaining activity at 10 µM (382 unique human kinases [6]): 6.94% | % Enzyme Activity (relative to DMSO controls) (382 unique human kinases [7]): 95.96% | remaining activity at 10 µM (382 unique human kinases [7]): 96% | % Enzyme Activity (relative to DMSO controls) (382 unique human kinases [8]): 97.63% | remaining activity at 10 µM (382 unique human kinases [8]): 98.8% | % Enzyme Activity (relative to DMSO controls) (382 unique human kinases [9]): 78.40% | remaining activity at 10 µM (382 unique human kinases [9]): 79.4% | % Enzyme Activity (relative to DMSO controls) (382 unique human kinases [10]): 94.32% | remaining activity at 10 µM (382 unique human kinases [10]): 96% | % Enzyme Activity (relative to DMSO controls) (382 unique human kinases [11]): 6.11% | remaining activity at 10 µM (382 unique human kinases [11]): 6.74%
